How the values were obtained:
Assay in all cases: Test D pre-/postemergence plant response
Type in all cases: in vivo
[1] = system: pigweed (Amaranthus retroflexus); conditions: Postemergence
Procedure, shortened: (§1)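 Seeds sown in loam–sand blend got preemergence sprays of test chemicals in a non-phytotoxic solvent with surfactant; postemergence sprays went on plants at 1- to 4-leaf stage (2 to 18 cm) in peat/vermiculite medium. After 13 to 15 days in greenhouse, visual injury versus controls scored 0 (no effect) to 100 (complete control).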

[2] = system: blackgrass (Alopecurus myosuroides); conditions: Postemergence; for Plant response rating, Blackgrass: scale 0 to 100, 0 no effect, 100 complete control
Procedure, shortened: as §1

[3] = system: winter wheat (Triticum aestivum); conditions: Postemergence
Procedure, shortened: as §1

corn (Zea mays) = conditions: Postemergence; for Plant response rating, Corn: scale 0 to 100, 0 no effect, 100 complete control
Procedure, shortened: as §1

[4] = system: giant foxtail (Setaria faberii); conditions: Postemergence; for Plant response rating, Foxtail, Giant: scale 0 to 100, 0 no effect, 100 complete control
Procedure, shortened: as §1

soybean (Glycine max) = conditions: Postemergence
Procedure, shortened: as §1

[5] = system: large (Lg) crabgrass (Digitaria sanguinalis); conditions: Postemergence; for Plant response rating, Crabgrass, Large: scale 0 to 100, 0 no effect, 100 complete control
Procedure, shortened: as §1

[6] = system: waterhemp (common waterhemp, Amaranthus rudis); conditions: Postemergence
Procedure, shortened: as §1

[7] = system: morningglory (Ipomoea coccinea); conditions: Postemergence
Procedure, shortened: as §1

[8] = system: lambsquarters (Chenopodium album); conditions: Postemergence
Procedure, shortened: as §1

[9] = system: galium (catchweed bedstraw, Galium aparine); conditions: Postemergence; for Plant response rating, Galium: scale 0 to 100, 0 no effect, 100 complete control
Procedure, shortened: as §1

[10] = system: Italian ryegrass (Lolium multiflorum); conditions: Postemergence
Procedure, shortened: as §1

[11] = system: oilseed rape (Brassica napus); conditions: Postemergence
Procedure, shortened: as §1

[12] = system: johnsongrass (Sorghum halepense); conditions: Postemergence; for Plant response rating, Johnsongrass: scale 0 to 100, 0 no effect, 100 complete control
Procedure, shortened: as §1

[13] = system: ragweed (common ragweed, Ambrosia elatior); conditions: Postemergence
Procedure, shortened: as §1

[14] = system: velvetleaf (Abutilon theophrasti); conditions: Postemergence
Procedure, shortened: as §1

[15] = system: yellow nutsedge (Cyperus esculentus); conditions: Postemergence
Procedure, shortened: as §1

[16] = system: barnyardgrass (Echinochloa crus-galli); conditions: Postemergence; for Plant response rating, Barnyardgrass: scale 0 to 100, 0 no effect, 100 complete control
Procedure, shortened: as §1

[17] = 31 g ai/ha, scale 0 to 100 (0 no effect, 100 complete control)
[18] = 62 g ai/ha, scale 0 to 100, 0 no effect, 100 complete control
[19] = 125 g ai/ha, scale 0 to 100, 0 no effect, 100 complete control

Clc1cnc(Oc2ccccc2-c2cc(Cl)sn2)nc1 [Compound 192]
Plant response rating (scale 0 to 100), Pigweed ([1]; 16 g ai/ha): 15 | Pigweed plant response rating [1, 17]: 20 | Pigweed plant response rating [1, 18]: 55 | Plant response rating, Pigweed [1, 19]: 55 | Plant response rating (scale 0 to 100), Blackgrass ([2]; 16 g ai/ha): 0 | Blackgrass plant response rating [2, 17]: 0 | Plant response rating, Blackgrass ([2]; 62 g ai/ha): 0 | Plant response rating, Blackgrass ([2]; 125 g ai/ha): 5 | Plant response rating (scale 0 to 100), Wheat ([3]; 16 g ai/ha): 0 | Wheat plant response rating [3, 17]: 0 | Wheat plant response rating [3, 18]: 5 | Plant response rating, Wheat [3, 19]: 5 | Plant response rating (scale 0 to 100), Corn (corn (Zea mays); 16 g ai/ha): 0 | Corn plant response rating (corn (Zea mays); [17]): 0 | Plant response rating, Corn (corn (Zea mays); 62 g ai/ha): 5 | Plant response rating, Corn (corn (Zea mays); 125 g ai/ha): 10 | Plant response rating (scale 0 to 100), Foxtail, Giant ([4]; 16 g ai/ha): 10 | Foxtail, Giant plant response rating [4, 17]: 25 | Plant response rating, Foxtail, Giant ([4]; 62 g ai/ha): 25 | Plant response rating, Foxtail, Giant ([4]; 125 g ai/ha): 15 | Plant response rating (scale 0 to 100), Soybean (soybean (Glycine max); 16 g ai/ha): 10 | Soybean plant response rating (soybean (Glycine max); [17]): 30 | Soybean plant response rating (soybean (Glycine max); [18]): 55 | Plant response rating, Soybean (soybean (Glycine max); [19]): 85 | Plant response rating (scale 0 to 100), Crabgrass, Large ([5]; 16 g ai/ha): 5 | Crabgrass, Large plant response rating [5, 17]: 5 | Plant response rating, Crabgrass, Large ([5]; 62 g ai/ha): 10 | Plant response rating, Crabgrass, Large ([5]; 125 g ai/ha): 10 | Plant response rating (scale 0 to 100), Waterhemp ([6]; 16 g ai/ha): 20 | Waterhemp plant response rating [6, 17]: 40 | Waterhemp plant response rating [6, 18]: 55 | Plant response rating, Waterhemp [6, 19]: 70 | Plant response rating (scale 0 to 100), Morningglory ([7]; 16 g ai/ha): 0 | Morningglory plant response rating [7, 17]: 0 | Morningglory plant response rating [7, 18]: 10 | Plant response rating, Morningglory [7, 19]: 45 | Plant response rating (scale 0 to 100), Lambsquarters ([8]; 16 g ai/ha): 35 | Lambsquarters plant response rating [8, 17]: 50 | Lambsquarters plant response rating [8, 18]: 40 | Plant response rating, Lambsquarters [8, 19]: 75 | Plant response rating (scale 0 to 100), Galium ([9]; 16 g ai/ha): 35 | Galium plant response rating [9, 17]: 50 | Plant response rating, Galium ([9]; 62 g ai/ha): 50 | Plant response rating, Galium ([9]; 125 g ai/ha): 50 | Plant response rating (scale 0 to 100), Ryegrass, Italian ([10]; 16 g ai/ha): 0 | Ryegrass, Italian plant response rating [10, 17]: 0 | Ryegrass, Italian plant response rating [10, 18]: 0 | Plant response rating, Ryegrass, Italian [10, 19]: 0 | Plant response rating (scale 0 to 100), Oilseed Rape ([11]; 16 g ai/ha): 0 | Oilseed Rape plant response rating [11, 17]: 0 | Oilseed Rape plant response rating [11, 18]: 5 | Plant response rating, Oilseed Rape [11, 19]: 50 | Plant response rating (scale 0 to 100), Johnsongrass ([12]; 16 g ai/ha): 0 | Johnsongrass plant response rating [12, 17]: 5 | Plant response rating, Johnsongrass ([12]; 62 g ai/ha): 5 | Plant response rating, Johnsongrass ([12]; 125 g ai/ha): 5 | Plant response rating (scale 0 to 100), Ragweed ([13]; 16 g ai/ha): 0 | Ragweed plant response rating [13, 17]: 5 | Ragweed plant response rating [13, 18]: 15 | Plant response rating, Ragweed [13, 19]: 45 | Plant response rating (scale 0 to 100), Velvetleaf ([14]; 16 g ai/ha): 20 | Velvetleaf plant response rating [14, 17]: 20 | Velvetleaf plant response rating [14, 18]: 30 | Plant response rating, Velvetleaf [14, 19]: 55 | Plant response rating (scale 0 to 100), Nutsedge, Yellow ([15]; 16 g ai/ha): 0 | Nutsedge, Yellow plant response rating [15, 17]: 5 | Nutsedge, Yellow plant response rating [15, 18]: 0 | Plant response rating, Nutsedge, Yellow [15, 19]: 5 | Plant response rating (scale 0 to 100), Barnyardgrass ([16]; 16 g ai/ha): 5 | Barnyardgrass plant response rating [16, 17]: 5 | Plant response rating, Barnyardgrass ([16]; 62 g ai/ha): 5 | Plant response rating, Barnyardgrass ([16]; 125 g ai/ha): 5

Source: US10131652B2, “Pyrimidinyloxy benzene derivatives as herbicides” (E. I. DU PONT DE NEMOURS AND COMPANY, priority 2014, dated 2018)
